pIC50: −log10 of the molar value.
Experiments:
HL-60 cells = assay: XTT cell proliferation assay, HL-60; format: cell-based; settings: Homo sapiens; leukemia cell line HL-60, XTT assay after 24 h; read-out: IC50, inhibition of growth of HL-60 cells
Experimental: (§1) HEK293 cells were cultured in […] Dulbecco’s modified Eagle’s medium (Biowest) containing 10% fetal bovine serum, 2 mM glutamine, non-essential amino acids, 4.5 mg mL^−1 glucose, and the antibiotics penicillin and streptomycin. HL-60 cells were cultured in RPMI 1640 w/o L-Glutamine supplemented with 10% fetal bovine serum, 2 mM glutamine, and the antibiotics penicillin and streptomycin. Cells were grown at 37 °C in a humidified atmosphere with 5% CO2.
(§2) Cytotoxicity was measured by the XTT assay at 450 nm as described by the manufacturer (Roche Diagnostics, Basel, Switzerland). Phosphate-buffered saline was used as negative control. For HL-60 and HEK293 cells, 1.2 × 10^5 cells in growth media were transferred to each well of a 96-well flat-bottom plate. Subsequently, modified nucleosides were added in varying concentrations. XTT assay was performed after 24 h for HL-60 and HEK293 cells, as described previously. At least three replicates for each nucleoside concentration were performed. All experiments were conducted for a minimum of three independent experiments.

HEK293 cells = assay: XTT cell proliferation assay, control cell line HEK293; format: cell-based; settings: control cell line HEK293, XTT assay after 24 h
Experimental: as §1, §2

pIC50 (HL-60 cells): 6.66
SMILES: Nc1nc(Cl)nc2c1ncn2[C@H]1C[C@H](O)[C@@H](CO)O1 [cladribine]
inhibition of growth of the control cell line HEK293 (HEK293 cells): No unspecific growth inhibition

Reference: article PMC7070685, “Efficient Biocatalytic Synthesis of Dihalogenated Purine Nucleoside Analogues Applying Thermodynamic Calculations” (Molecules, 2020)
